Results: patent publication US11274131B2, “IgM-mediated receptor clustering and cell modulation” (MAYO FOUNDATION FOR MEDICAL EDUCATION AND RESEARCH, priority 2007, dated 2022)

Key:
Assay type in all cases: cell-based
human DC [1] = experiment: Immunoblot of phosphorylation of signaling intermediates in human DC
Procedure: FIGS. 2A to 2G are a series of pictures showing that a kinase activated pathway regulates antibody-induced antigen uptake by matured DC. Matured human monocyte-derived DC were treated with the MTAb B7-DC XAb for varying time periods and evaluated for the phosphorylation status of select signaling pathway intermediates by immunoprecipitation with DAP12 (MC457), Syk (4D10), and PLCγ1 (MC490) reactive antibodies followed by western blot analysis using the phosphotyrosine reactive antibody 4G10 as a probe (FIGS. 2A-2C). Samples of the cells blocked with indicated concentration of piceatannol (FIG. 2D) or with […] of piceatannol (FIG. 2E) were analyzed for phosphorylation of Syk (FIG. 2D) and PLCγ1 (FIG. 2E). To investigate the functional importance of these signaling intermediates in the regulation of antigen uptake by matured DC activated with B7-DC XAb, varying concentrations of pharmacologic inhibitors were used to block the activity of p72Syk (piceatannol) and PLCγ1 (U73122) (FIGS. 2F and 2G, respectively). Antigen uptake was assessed by pulsing cultures with FITC-conjugated ovalbumin and measuring intracellular fluorescence 16 hours later in CD11c positive cells by flow cytometry.
In experiments involving assessment of the phosphorylation status of various protein kinases using whole cell lysate, dendritic cells of mouse or human origin or Jurkat cells were stimulated at the indicated times with control antibody or B7-DC XAb, and were lysed on ice for 10 minutes in 1 ml buffer containing 20 mM Tris-HCl, 40 mM NaCl, 5 mM EDTA, 50 mM NaF, 30 mM Na4P2O7, 0.1% BSA, 1 mM Na3VO4, 1 mM PMSF, 5 μg/ml aprotinin, 10 μg/ml leupeptin, and 1% Triton X-100. Cellular debris was removed by centrifugation at 20,800×g for 5 minutes at 4° C. and the supernatant was used in SDS-PAGE analysis for phosphorylated tyrosine proteins. For immunoprecipitation, antibody against mouse Syk (4D10) or PLC yl (MC490) or DAP12 (MC457) at 10 μg per sample was bound to protein A-Sepharose beads at 4° C. for 2 hours under constant rotation. Supernatants from cell lysate after stimulation were incubated with antibody coupled beads for 2 hours at 4° C. with constant rotation. […] Tyrosine-phosphorylated proteins were detected using the anti-phosphotyrosine specific antibody, 4G10, followed by goat anti-mouse IgG coupled to Horse Radish Peroxidase (Santa Cruz Biotechnology) and the SuperSignal detection system (Pierce Biotechnology, Rockford, Ill.). […] The supernatants were resolved by SDS-PAGE, probed with anti-mouse TREM-2 antibody (237920) and detected by Goat-anti mouse antibody coupled to HRP, or probed with affinity purified anti-mouse CD40 (1C10) and detected by Goat-anti mouse antibody coupled to HRP.

mouse DC [2] = experiment: Co-immunoprecipitation with class II IA^b from mouse DC
Source text: In FIG. 5A, the distribution of class II (labeled with APC-conjugated antibody) and CD80/CD86 molecules (labeled with PE-conjugated antibodies) was visualized by FRET following treatment of human monocyte derived DC with B7-DC XAb (open histograms) or with isotype control antibody (filled histograms). For FIG. 5B, mouse bone marrow derived DC were labeled, treated, and analyzed as in FIG. 5A. FIG. 5C indicates the inability of the IA^b specific IgM antibody 25-9-3 (open dark histograms), B7-DC XAb (open light histograms), and isotype control antibody treated samples (filled histograms) to induce FRET (top left and middle panels). Binding of the class II specific IgM antibody to the mouse DC analyzed is shown (top right panel). FIG. 5D indicates the ability of B7-DC-specific IgG antibody (open histograms on left of each panel) or no IgG antibody (open histograms on right of each panel) to inhibit FRET induced by the MTAb B7-DC XAb. Absence of FRET induced by Isotype control antibody is shown in reference (filled histograms). For FIGS. 5E and 5F, immunoprecipitates of membrane proteins from B7-DC XAb or control antibody treated DC were isolated using biotin tagged IA^b-specific KH74 antibody. The precipitates were analyzed by Western blot using mouse-specific TREM-2 and CD40 antibodies as probes. […]

mouse DC [3] = experiment: Calcium flux assay, mouse DC
Procedure: (§1) Changes in the levels of intracellular Ca^2+ were assessed in Indol-loaded cells by flow cytometry as described previously (Takahashi et al. (2005) J. Exp. Med. 201:647-657). Briefly, 5×10^6 DC/ml were incubated with 5 μM Indo-1 (Calbiochem) at 37° C. for 30 minutes. The cells were washed twice in serum free media and resuspended at 10^6/ml in PBS containing 0.5% BSA. The samples were analyzed by flow cytometry using a UV laser. Violet (390 nm) and blue (500 nm) fluorescence emissions were recorded. Baseline was recorded for two minutes. Antibody was added to the cell suspension (10 μg/ml of control antibody or B7-DC XAb) and the measurements were recorded for 8 additional minutes. In blocking experiments, mouse or human DC were pre-incubated with 10 μg/ml of purified anti-mouse B7-DC antibody (TY-25) or purified anti-human B7-DC antibody (MIH18) for 15 minutes, followed by collection of data for calcium flux as described above. Ionomycin added at 1 μg/ml after 2 minutes served as a positive control. The blue to violet ratio was calculated using FlowJo software (Tristar, Ashland, Oreg.).

human DC [4] = experiment: Calcium flux assay, human DC
Procedure: as §1

Substance: B7-DC XAb: human monoclonal IgM from a Waldenstrom's macroglobulinemia patient that binds and cross-links B7-DC on DC
- phosphorylation of PLCγ1 (human DC [1]; human DC): concomitant with the phosphorylation of PLCγ1
- phosphorylation of cellular proteins (human DC [1]; human DC treated with antibody): induced as early as one minute after treatment
- phosphorylation of DAP12 (human DC [1]; human DC, cross-linking B7-DC): rapidly phosphorylated
- phosphorylation of Syk (human DC [1]; human DC, immunoprecipitated Syk): revealed phosphorylation of the protein tyrosine kinase
- association of TREM-2 with class II IA^b by co-immunoprecipitation (mouse DC [2]; lysates 5 minutes after treatment): co-immunoprecipitation of TREM-2 with the class II molecule IA^b
- recruitment of CD40 to the cap, co-precipitation with class II (mouse DC [2]; mouse DC): co-precipitation with class II molecules
- intracellular calcium signal (mouse DC [3]): prolonged calcium signals
- intracellular calcium signal (human DC [4]): prolonged calcium signals
